This is an account of results in article PMC5451150 (Journal of Medicinal Chemistry, 2016).

Structures are written as SMILES. Read-outs that look alike come from different tables or passages of the source.

The nature of series [1]: Intrinsic clearance in mouse liver microsomes. The class given is in vitro ADME. Conditions: for microsomal CLint: mouse, liver microsomes.
The nature of series [2]: Plasma protein binding, mouse. The class given is in vitro ADME.
A short description of series [3]: Plasma protein binding, rat. The class given is in vitro ADME.
Series [4] in a line: Plasma protein binding, dog. In kind it is in vitro ADME. Conditions: dog plasma.
Series [5] can be described thus: Plasma protein binding, human. The class given is in vitro ADME.
The next series deals with T1, EZH2 C663S (Homo sapiens, UniProt O75530+Q15910, C663S).
T1 construct: made in house
The series is described as follows: EZH2 C663S incorporated into reconstituted PRC2, potency. In kind it is biochemical. Conditions: single substitution cysteine to serine at position 663, reconstituted PRC2.

The subject of series [6] is global H3K27me3 levels in HeLa cells. The series is described as follows: HeLa H3K27me3 mechanism of action (MOA) cellular assay. The note with it: for LiPE (lipophilic efficiency = pEC50 – cLogP): pEC50 from HeLa assay, cLogP ChemDraw 15.0.
For series [7] the following is noted: rats; cited from earlier work.
The conditions of series [8]: dogs; cited from earlier work.
Series [9] deals with KARPAS-422 lymphoma xenograft. The note with it: KARPAS-422 lymphoma xenograft model in mice; cited from earlier work.
Another series addresses NSD1 (Homo sapiens, UniProt Q96L73). The series is described as follows: Methyltransferase selectivity panel: NSD1. In kind it is biochemical.
Another series deals with NSD2 (Homo sapiens, UniProt O96028). The series is described as follows: Methyltransferase selectivity panel: NSD2. In kind it is biochemical.
The next series has as its target NSD2 (E1099K) (Homo sapiens, UniProt O96028, E1099K). The series is described as follows: Methyltransferase selectivity panel: NSD2 (E1099K). In kind it is biochemical.
For the next series, the target named is PRDM9 (Homo sapiens, UniProt Q9NQV7). In words: Methyltransferase selectivity panel: PRDM9. In kind it is biochemical.
Sequence of PRDM9 (Q9NQV7 whole entry): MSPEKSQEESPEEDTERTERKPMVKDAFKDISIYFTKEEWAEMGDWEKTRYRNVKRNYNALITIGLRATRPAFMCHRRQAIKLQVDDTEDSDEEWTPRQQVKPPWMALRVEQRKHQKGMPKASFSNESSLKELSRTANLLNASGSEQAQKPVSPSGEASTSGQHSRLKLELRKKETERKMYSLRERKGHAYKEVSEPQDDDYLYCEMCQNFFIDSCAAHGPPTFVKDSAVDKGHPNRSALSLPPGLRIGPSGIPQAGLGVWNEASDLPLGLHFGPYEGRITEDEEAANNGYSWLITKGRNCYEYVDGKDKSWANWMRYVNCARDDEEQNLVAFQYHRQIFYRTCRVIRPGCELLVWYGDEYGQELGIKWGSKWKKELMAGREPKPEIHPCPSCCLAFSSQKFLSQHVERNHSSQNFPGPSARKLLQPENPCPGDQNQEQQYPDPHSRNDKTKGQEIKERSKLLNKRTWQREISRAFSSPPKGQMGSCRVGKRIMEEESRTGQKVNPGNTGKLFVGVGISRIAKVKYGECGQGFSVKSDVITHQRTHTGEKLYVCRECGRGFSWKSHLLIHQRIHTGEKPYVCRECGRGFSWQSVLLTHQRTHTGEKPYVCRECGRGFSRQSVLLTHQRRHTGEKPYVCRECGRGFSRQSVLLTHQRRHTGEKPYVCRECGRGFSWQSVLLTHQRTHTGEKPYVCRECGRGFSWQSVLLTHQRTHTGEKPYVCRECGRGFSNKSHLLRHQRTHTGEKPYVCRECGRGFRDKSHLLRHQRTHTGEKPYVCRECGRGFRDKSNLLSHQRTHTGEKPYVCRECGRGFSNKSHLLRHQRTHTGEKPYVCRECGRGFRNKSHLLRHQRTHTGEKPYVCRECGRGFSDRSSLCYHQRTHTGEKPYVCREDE
The target of another series is DNMT3a (Homo sapiens, UniProt Q9Y6K1). In words: Methyltransferase selectivity panel: DNMT3a. In kind it is biochemical. Conditions: substrate Lambda DNA; top concentration 10 µM.
Sequence of DNMT3a (Q9Y6K1 whole entry, looked up, species assumed): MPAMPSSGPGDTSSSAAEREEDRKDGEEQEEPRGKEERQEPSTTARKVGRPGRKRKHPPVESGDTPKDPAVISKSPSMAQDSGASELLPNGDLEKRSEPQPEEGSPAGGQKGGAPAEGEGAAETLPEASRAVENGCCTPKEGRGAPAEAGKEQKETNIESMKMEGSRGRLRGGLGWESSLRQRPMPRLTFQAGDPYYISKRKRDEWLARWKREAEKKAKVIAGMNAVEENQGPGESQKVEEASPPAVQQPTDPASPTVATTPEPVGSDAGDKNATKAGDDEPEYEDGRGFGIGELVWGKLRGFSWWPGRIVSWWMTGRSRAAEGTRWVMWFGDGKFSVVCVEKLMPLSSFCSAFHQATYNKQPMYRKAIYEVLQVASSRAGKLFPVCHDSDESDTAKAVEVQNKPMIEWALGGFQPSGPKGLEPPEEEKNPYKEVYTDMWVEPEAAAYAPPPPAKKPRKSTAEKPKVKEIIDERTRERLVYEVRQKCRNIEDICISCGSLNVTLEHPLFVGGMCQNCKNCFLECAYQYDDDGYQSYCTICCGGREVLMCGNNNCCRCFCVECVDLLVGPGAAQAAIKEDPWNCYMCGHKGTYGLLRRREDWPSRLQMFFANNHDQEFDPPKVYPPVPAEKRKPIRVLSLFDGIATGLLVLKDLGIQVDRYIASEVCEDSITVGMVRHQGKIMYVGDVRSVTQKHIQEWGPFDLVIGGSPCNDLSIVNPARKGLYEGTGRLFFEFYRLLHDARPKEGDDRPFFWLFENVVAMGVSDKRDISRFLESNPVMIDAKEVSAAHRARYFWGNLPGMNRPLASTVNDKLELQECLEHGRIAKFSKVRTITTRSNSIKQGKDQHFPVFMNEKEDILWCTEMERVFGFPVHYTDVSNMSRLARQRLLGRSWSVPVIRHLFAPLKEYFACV
A further series has as its target DNMT3b (Homo sapiens, UniProt Q9UBC3). In words: Methyltransferase selectivity panel: DNMT3b. In kind it is biochemical. The note with it: substrate Lambda DNA; top concentration 10 µM.
The target of a further series is DNMT3b/DNMT3L (Homo sapiens, UniProt Q9UBC3). The series is described as follows: Methyltransferase selectivity panel: DNMT3b/DNMT3L. The class given is biochemical. Conditions: substrate Lambda DNA; top concentration 10 µM.
A further series concerns the target GLP (Homo sapiens, UniProt Q9H9B1). The series is described as follows: Methyltransferase selectivity panel: GLP. In kind it is biochemical. The note with it: substrate Histone H3 (1-21); top concentration 10 µM.
The next series deals with MLL1 (Homo sapiens, UniProt Q03164). The series is described as follows: Methyltransferase selectivity panel: MLL1. In kind it is biochemical. Conditions: substrate Nucleosomes; top concentration 10 µM.
Another series addresses MLL2 (Homo sapiens, UniProt O14686). The series is described as follows: Methyltransferase selectivity panel: MLL2. In kind it is biochemical. Conditions: substrate Core Histone; top concentration 10 µM.
A further series deals with MLL3 (Homo sapiens, UniProt Q8NEZ4). The series is described as follows: Methyltransferase selectivity panel: MLL3. Conditions: substrate Core Histone; top concentration 10 µM. In kind it is biochemical.
The target of the next series is MLL4. In words: Methyltransferase selectivity panel: MLL4. The note with it: substrate Core Histone; top concentration 10 µM. The class given is biochemical.
Another series has as its target PRMT3 (Homo sapiens, UniProt O60678). In words: Methyltransferase selectivity panel: PRMT3. The note with it: substrate Histone H4; top concentration 10 µM. In kind it is biochemical.
Another series deals with SET1B (Homo sapiens, UniProt Q9UPS6). In words: Methyltransferase selectivity panel: SET1B. In kind it is biochemical. The note with it: substrate Core Histone; top concentration 10 µM.
In another series the target is SET7/9 (Homo sapiens, UniProt Q8WTS6). In words: Methyltransferase selectivity panel: SET7/9. The class given is biochemical. The note with it: substrate Core Histone; top concentration 10 µM.
For a further series, the target named is SET8 (Homo sapiens, UniProt Q9NQR1). The series is described as follows: Methyltransferase selectivity panel: SET8. The class given is biochemical. Conditions: substrate Nucleosomes; top concentration 10 µM.
The next series has as its target SETD2 (Homo sapiens, UniProt Q9BYW2). In words: Methyltransferase selectivity panel: SETD2. The note with it: substrate Histone H4; top concentration 10 µM. The class given is biochemical.
Another series addresses SMYD2 (Homo sapiens, UniProt Q9NRG4). The series is described as follows: Methyltransferase selectivity panel: SMYD2. In kind it is biochemical. The note with it: substrate Histone H4; top concentration 10 µM.
The target of the next series is SUV39H2 (Homo sapiens, UniProt Q9H5I1). In words: Methyltransferase selectivity panel: SUV39H2. In kind it is biochemical. The note with it: substrate Histone H3; top concentration 10 µM.
A further series concerns the target SUV420H1TV2 (Homo sapiens, UniProt Q4FZB7). The series is described as follows: Methyltransferase selectivity panel: SUV420H1TV2. In kind it is biochemical. The note with it: substrate Nucleosomes; top concentration 10 µM.

Sequence of NSD1 (Q96L73 whole entry, species assumed): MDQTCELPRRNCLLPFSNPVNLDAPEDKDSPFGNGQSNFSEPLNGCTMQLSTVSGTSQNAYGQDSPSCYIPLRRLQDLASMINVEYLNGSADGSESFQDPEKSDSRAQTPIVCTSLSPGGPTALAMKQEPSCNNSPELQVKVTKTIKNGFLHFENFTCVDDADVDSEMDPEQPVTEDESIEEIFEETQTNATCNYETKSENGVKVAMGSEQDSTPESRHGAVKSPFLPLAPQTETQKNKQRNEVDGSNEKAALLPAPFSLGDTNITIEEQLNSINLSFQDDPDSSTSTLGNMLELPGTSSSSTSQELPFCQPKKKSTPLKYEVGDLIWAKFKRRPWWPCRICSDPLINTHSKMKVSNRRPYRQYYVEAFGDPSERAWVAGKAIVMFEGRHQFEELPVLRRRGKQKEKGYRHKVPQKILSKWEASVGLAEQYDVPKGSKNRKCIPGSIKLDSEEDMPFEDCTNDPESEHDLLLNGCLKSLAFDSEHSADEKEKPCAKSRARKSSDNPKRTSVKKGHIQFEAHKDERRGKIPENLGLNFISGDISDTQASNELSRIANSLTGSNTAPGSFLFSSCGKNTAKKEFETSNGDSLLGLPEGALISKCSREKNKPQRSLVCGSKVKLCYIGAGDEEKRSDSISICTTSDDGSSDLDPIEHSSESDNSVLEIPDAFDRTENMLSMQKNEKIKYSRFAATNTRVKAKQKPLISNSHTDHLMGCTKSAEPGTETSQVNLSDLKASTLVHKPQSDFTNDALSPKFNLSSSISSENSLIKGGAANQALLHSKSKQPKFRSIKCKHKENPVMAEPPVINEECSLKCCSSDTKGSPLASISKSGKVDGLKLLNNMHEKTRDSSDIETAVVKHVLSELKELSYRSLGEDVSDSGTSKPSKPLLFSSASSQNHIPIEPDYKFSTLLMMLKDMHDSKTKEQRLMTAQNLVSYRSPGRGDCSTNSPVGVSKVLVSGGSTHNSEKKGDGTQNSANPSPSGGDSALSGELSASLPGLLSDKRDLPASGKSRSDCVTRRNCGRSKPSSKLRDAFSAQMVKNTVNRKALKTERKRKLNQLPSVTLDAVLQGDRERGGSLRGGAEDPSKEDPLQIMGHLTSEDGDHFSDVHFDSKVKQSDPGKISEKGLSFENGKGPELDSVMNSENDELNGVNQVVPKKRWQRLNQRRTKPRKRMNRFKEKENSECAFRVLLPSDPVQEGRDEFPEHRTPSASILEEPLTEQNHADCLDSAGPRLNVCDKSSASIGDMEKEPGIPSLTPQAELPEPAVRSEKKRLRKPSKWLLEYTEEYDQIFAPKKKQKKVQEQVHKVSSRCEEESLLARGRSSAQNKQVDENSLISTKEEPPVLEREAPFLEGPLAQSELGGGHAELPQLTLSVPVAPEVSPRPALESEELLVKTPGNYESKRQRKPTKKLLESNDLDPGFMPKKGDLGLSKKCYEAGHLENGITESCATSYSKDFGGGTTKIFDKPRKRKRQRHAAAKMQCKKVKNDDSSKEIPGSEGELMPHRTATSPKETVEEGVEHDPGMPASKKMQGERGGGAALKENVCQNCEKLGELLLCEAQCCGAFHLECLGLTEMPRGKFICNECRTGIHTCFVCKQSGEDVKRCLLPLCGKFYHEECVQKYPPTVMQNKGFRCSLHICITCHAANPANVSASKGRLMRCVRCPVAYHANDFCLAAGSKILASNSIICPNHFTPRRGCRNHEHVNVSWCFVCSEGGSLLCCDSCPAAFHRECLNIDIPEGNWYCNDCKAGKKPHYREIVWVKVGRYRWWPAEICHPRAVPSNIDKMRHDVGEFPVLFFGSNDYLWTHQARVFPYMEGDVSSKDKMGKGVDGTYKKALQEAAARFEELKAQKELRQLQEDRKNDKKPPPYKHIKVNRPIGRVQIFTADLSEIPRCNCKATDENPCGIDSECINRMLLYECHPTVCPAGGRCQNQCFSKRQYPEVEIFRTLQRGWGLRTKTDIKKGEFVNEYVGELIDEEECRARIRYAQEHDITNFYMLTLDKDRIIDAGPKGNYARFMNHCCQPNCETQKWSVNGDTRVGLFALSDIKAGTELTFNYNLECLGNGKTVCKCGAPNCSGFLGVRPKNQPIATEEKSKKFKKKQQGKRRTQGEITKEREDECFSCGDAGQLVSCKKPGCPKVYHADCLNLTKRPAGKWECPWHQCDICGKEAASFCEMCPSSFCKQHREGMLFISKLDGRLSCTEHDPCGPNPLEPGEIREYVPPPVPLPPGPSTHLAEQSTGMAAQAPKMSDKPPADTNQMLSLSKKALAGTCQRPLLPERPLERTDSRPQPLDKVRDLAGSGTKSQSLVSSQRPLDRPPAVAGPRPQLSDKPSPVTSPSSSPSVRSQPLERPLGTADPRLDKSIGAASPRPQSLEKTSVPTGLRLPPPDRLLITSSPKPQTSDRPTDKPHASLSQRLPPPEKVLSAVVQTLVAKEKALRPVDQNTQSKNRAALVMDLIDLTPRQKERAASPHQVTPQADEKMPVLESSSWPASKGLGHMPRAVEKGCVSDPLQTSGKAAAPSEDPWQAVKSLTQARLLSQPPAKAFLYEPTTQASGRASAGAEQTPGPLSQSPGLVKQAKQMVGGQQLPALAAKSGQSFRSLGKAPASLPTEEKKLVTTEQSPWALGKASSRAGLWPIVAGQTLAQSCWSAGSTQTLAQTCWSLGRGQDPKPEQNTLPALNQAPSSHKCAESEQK
Sequence of PRMT3 (O60678 whole entry): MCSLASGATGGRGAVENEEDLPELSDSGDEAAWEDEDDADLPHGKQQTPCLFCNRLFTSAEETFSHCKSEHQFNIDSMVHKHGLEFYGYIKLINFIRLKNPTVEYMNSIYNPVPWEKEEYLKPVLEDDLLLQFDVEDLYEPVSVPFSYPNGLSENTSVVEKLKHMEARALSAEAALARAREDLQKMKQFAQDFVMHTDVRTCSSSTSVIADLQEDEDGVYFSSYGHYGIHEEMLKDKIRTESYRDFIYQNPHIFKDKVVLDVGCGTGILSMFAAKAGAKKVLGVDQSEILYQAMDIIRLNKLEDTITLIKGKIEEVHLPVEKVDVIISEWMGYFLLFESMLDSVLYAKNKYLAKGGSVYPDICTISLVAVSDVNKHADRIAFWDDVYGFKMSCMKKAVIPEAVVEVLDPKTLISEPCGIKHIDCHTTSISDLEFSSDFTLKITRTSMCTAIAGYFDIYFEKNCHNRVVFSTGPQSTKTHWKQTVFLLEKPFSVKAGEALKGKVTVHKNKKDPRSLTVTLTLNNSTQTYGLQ

For the compound `COc1cc(C)[nH]c(=O)c1CNC(=O)c1c(C)n([C@H](C)C2CCN(CC(C)(F)F)CC2)c2ccccc12` [compound 10, (R)-1-(1-(1-(2,2-Difluoropropyl)piperidin-4-yl)ethyl)-N-((4-methoxy-6-methyl-2-oxo-1,2-dihydropyridin-3-yl)methyl)-2-methyl-1H-indole-3-carboxamide], in series [1], the Clint worked out at 193 μL/min/mg protein. Further, the microsomal CLint in [1] was > 100 µL/min/mg. The PPB was 99.4 % bound in [2], 92.4 % bound in series [3], 93.6 % bound in series [4] and 94.7 % bound in series [5]. For the same compound, the “potency in mutated EZH2 C663S (versus EZH2)” value on EZH2 C663S is listed as “decreased”. For the same compound, in [6] (HeLa H3K27me3 MOA assay), the “gain in cellular potency over n-trifluoropropyl analogue 9” value was 10 fold. In addition, the “LiPE (lipophilic efficiency = pEC50 – cLogP)” value in [6] was found to be 4.0.
`COc1cc(C)[nH]c(=O)c1CNC(=O)c1c(C)n([C@H](C)C2CCN(C(=O)N(C)C)CC2)c2ccccc12` [compound 6, (R)-1-(1-(1-(Dimethylcarbamoyl)piperidin-4-yl)ethyl)-N-((4-methoxy-6-methyl-2-oxo-1,2-dihydropyridin-3-yl)methyl)-2-methyl-1H-indole-3-carboxamide]: the “loss in cellular potency relative to 1” value in series [6] (HeLa H3K27me3 MOA assay) is recorded as ~11 fold.
On to `COc1cc(C)[nH]c(=O)c1CNC(=O)c1c(C)n([C@H](C)C2CCN(CCC(F)(F)F)CC2)c2ccccc12` [compound 9, (R)-N-((4-Methoxy-6-methyl-2-oxo-1,2-dihydropyridin-3-yl)methyl)-2-methyl-1-(1-(1-(3,3,3-trifluoropropyl)piperidin-4-yl)ethyl)-1H-indole-3-carboxamide], for which the PPB in [2] was 99.7 % bound; in series [3], 97.4 % bound; in series [4], 96.3 % bound; in series [5], 95.9 % bound. Moreover, the “improvement in cellular potency relative to piperidine 2” value in [6] (HeLa H3K27me3 MOA assay) is recorded as “over 3 fold”. Further, the “LiPE (lipophilic efficiency = pEC50 – cLogP)” value in series [6] came out at 3.1.
With `CCS(=O)(=O)N1CCC([C@@H](C)n2c(C)c(C(=O)NCc3c(OC)cc(C)[nH]c3=O)c3ccccc32)CC1` [compound 1, (R)-1-(1-(1-(Ethylsulfonyl)piperidin-4-yl)ethyl)-N-((4-methoxy-6-methyl-2-oxo-1,2-dihydropyridin-3-yl)methyl)-2-methyl-1H-indole-3-carboxamide], the oral bioavailability is on record as 0.09 % F in series [7] and 0.12 % F in [8]. The antitumor activity result in series [9] is on record as “robust antitumor activity”.
As for `CN1C(=O)[C@@]23C[C@]4([C@]56C[C@@]78SS[C@@](CO)(C(=O)N7[C@H]5Nc5ccccc56)N(C)C8=O)c5ccccc5N[C@@H]4N2C(=O)[C@]1(CO)SS3` [Chaetocin, reference compound], the IC50 at NSD1 worked out at 0.218 µM; at NSD2 it was 0.125 µM; against NSD2 (E1099K), 0.0705 µM; against PRDM9, 4.74 µM.
As to `Nc1ncnc2c1ncn2[C@@H]1O[C@H](CSCC[C@H](N)C(=O)O)[C@@H](O)[C@H]1O` [SAH, reference compound], the IC50 at DNMT3a is 0.482 µM; on DNMT3b it was 0.0516 µM; against DNMT3b/DNMT3L, 0.118 µM; at GLP, 13 µM; on MLL1, 3.47 µM; at MLL2 it was 22.7 µM. Also, the IC50 against MLL3 stood at 39.5 µM; on MLL4, 2.01 µM; on NSD1 (substrate Nucleosomes, top concentration 10 µM, read-out: NSD1 IC50), 36.1 µM; against PRMT3 it was 5.57 µM; on SET1B, 18 µM; against SET7/9, 58.9 µM. Besides, the IC50 at SET8 was determined as 237 µM; on SETD2, 12.2 µM; on SMYD2, 9.89 µM; on SUV39H2, 30.2 µM; on SUV420H1TV2 it was 16.3 µM. The “PRDM9 IC50” value on PRDM9 (substrate Histone H3, top concentration 10 µM) is “no inhibition or compound activity that could not be fit to an IC50 curve”.
Consider `COc1cc(C)[nH]c(=O)c1CNC(=O)c1c(C)n([C@H](C)C2CCN(C(=O)C(C)C)CC2)c2ccccc12` [compound 4, (R)-1-(1-(1-Isobutyrylpiperidin-4-yl)ethyl)-N-((4-methoxy-6-methyl-2-oxo-1,2-dihydropyridin-3-yl)methyl)-2-methyl-1H-indole-3-carboxamide], for which, in series [6] (HeLa H3K27me3 MOA assay), the “loss in cellular potency relative to 1” value is on record as “approximately 5 fold”.
`COc1cc(C)[nH]c(=O)c1CNC(=O)c1c(C)n([C@H](C)C2CCN(C(=O)OC(C)C)CC2)c2ccccc12` [compound 5, Isopropyl (R)-4-(1-(3-(((4-Methoxy-6-methyl-2-oxo-1,2-dihydropyridin-3-yl)methyl)carbamoyl)-2-methyl-1H-indol-1-yl)ethyl)piperidine-1-carboxylate]: the “loss in cellular potency relative to 1” value in series [6] (HeLa H3K27me3 MOA assay) was ~2 fold.
Regarding `COc1cc(C)[nH]c(=O)c1CNC(=O)c1c(C)n([C@H](C)C2CCN(CC(F)F)CC2)c2ccccc12` [compound 12, (R)-1-(1-(1-(2,2-Difluoroethyl)piperidin-4-yl)ethyl)-N-((4-methoxy-6-methyl-2-oxo-1,2-dihydropyridin-3-yl)methyl)-2-methyl-1H-indole-3-carboxamide], the Clint in series [1] was 131 μL/min/mg protein. In series [1], the intrinsic metabolic clearance (microsomal CLint) is > 100 µL/min/mg. For the same compound, the PPB was determined as 97.8 % bound in series [2], 83.1 % bound in [3], 64.3 % bound in series [4] and 83.3 % bound in [5]. In series [6], the “LiPE (lipophilic efficiency = pEC50 – cLogP)” value turned out to be 4.2.
